From PubChem BioAssay AID1407 (Johns Hopkins Ion Channel Center, 2008)

Target: Potassium voltage-gated channel subfamily KQT member 2 (Rattus norvegicus) (UniProt O88943)
Test: PubChem AID 1407
Conditions: KCNQ2-expressing cells, rubidium efflux, at 10 µM, stronger effect = higher value

Potassium voltage-gated channel subfamily KQT member 2 (Rattus norvegicus), sequence (O88943 whole entry, looked up): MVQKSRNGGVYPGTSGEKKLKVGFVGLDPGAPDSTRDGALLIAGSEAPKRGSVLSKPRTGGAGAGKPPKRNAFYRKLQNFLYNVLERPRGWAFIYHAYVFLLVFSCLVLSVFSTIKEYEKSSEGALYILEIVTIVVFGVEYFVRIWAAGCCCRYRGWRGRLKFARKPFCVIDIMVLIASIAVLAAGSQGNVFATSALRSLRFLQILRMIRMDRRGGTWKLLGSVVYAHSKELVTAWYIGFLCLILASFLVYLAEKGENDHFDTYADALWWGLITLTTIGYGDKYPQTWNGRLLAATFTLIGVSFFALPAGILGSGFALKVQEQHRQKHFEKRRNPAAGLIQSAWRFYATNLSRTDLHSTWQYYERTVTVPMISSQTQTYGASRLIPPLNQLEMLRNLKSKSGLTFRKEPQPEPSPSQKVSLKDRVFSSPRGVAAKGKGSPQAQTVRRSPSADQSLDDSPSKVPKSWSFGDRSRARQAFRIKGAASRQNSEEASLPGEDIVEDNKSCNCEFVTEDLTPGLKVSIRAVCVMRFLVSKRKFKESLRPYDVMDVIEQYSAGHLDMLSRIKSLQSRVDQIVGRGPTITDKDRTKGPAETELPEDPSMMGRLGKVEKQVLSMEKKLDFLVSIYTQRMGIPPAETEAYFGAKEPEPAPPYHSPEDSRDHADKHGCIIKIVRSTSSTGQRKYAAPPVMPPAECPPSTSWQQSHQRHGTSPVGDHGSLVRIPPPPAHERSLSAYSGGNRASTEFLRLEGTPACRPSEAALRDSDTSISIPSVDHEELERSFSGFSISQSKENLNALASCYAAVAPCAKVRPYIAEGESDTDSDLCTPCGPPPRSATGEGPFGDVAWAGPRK

O[N+]1=CC=CCC1=S.On1ccccc1=S.[Zn]
activity increase: 23.1% | efflux (measured here: rubidium efflux percent): 85.5%
